# From ChEMBL document CHEMBL3994662, “In vivo instability of platensimycin and platencin: Synthesis and biological evaluation of urea- and carbamate-platensimycin” (Bioorg Med Chem, 2017)
# Legend:
# [1] = Elimination half life in C57Bl/6 mouse at 10 mg/kg, iv administered as single dose by LC-MS/MS analysis; format: ADME, organism-based; details: in vivo, read-out: beta t1/2 (converted)
# [2] = tested on: Mus musculus; assay: Elimination half life in C57Bl/6 mouse assessed as platensimycin level at 10 mg/kg, iv administered as single dose by LC-MS/MS analysis; format: ADME, organism-based; details: in vivo
# [3] = Cmax in C57Bl/6 mouse at 10 mg/kg, iv administered as single dose by LC-MS/MS analysis; format: ADME, organism-based; design: dose 10 mg/kg, route intravenous; details: in vivo
# [4] = tested on: Mus musculus; assay: Cmax in C57Bl/6 mouse assessed as platensimycin level at 10 mg/kg, iv administered as single dose by LC-MS/MS analysis; format: ADME, organism-based; design: dose 10 mg/kg, route intravenous; details: in vivo
# [5] = tested on: Mus musculus; assay: AUC (0 to 8 hrs) in C57Bl/6 mouse at 10 mg/kg, iv administered as single dose by LC-MS/MS analysis; format: ADME, organism-based; design: dose 10 mg/kg, time < 8 hr, route intravenous; details: in vivo
# [6] = tested on: Mus musculus; assay: AUC (0 to 8 hrs) in C57Bl/6 mouse assessed as platensimycin level at 10 mg/kg, iv administered as single dose by LC-MS/MS analysis; format: ADME, organism-based; design: dose 10 mg/kg, time < 8 hr, route intravenous; details: in vivo
# [7] = Observed clearance in C57Bl/6 mouse at 10 mg/kg, iv administered as single dose by LC-MS/MS analysis; format: ADME, organism-based; details: in vivo
# [8] = Volume of distribution in C57Bl/6 mouse at 10 mg/kg, iv administered as single dose by LC-MS/MS analysis; format: ADME, organism-based; details: in vivo
# [9] = tested on: Mus musculus; assay: Volume of distribution in C57Bl/6 mouse assessed as platensimycin level at 10 mg/kg, iv administered as single dose by LC-MS/MS analysis; format: ADME, organism-based; details: in vivo
# [10] = tested on: Plasma; assay: Drug uptake in C57Bl/6 mouse plasma at 10 mg/kg, iv administered as single dose measured after 60 mins by LC-MS/MS analysis; format: ADME, organism-based; details: in vivo, 1 h
# [11] = Ratio of drug level in C57Bl/6 mouse liver to plasma at 10 mg/kg, iv administered as single dose measured after 60 mins by LC-MS/MS analysis; format: ADME, organism-based
# [12] = Ratio of drug level in C57Bl/6 mouse kidney to plasma at 10 mg/kg, iv administered as single dose measured after 60 mins by LC-MS/MS analysis; format: ADME, organism-based
# [13] = Drug level in C57Bl/6 mouse urine at 10 mg/kg, iv administered as single dose measured after 60 mins by LC-MS/MS analysis; format: ADME, organism-based; details: C57Bl/6, mouse, urine, read-out: Drug uptake
# [14] = tested on: Plasma; assay: Drug metabolism in C57Bl/6 mouse plasma assessed as platensimycin formation at 10 mg/kg, iv administered as single dose measured after 60 mins by LC-MS/MS analysis; format: ADME, organism-based; details: in vivo, 1 h
# [15] = Drug level in C57Bl/6 mouse urine assessed as platensimycin level at 10 mg/kg, iv administered as single dose measured after 60 mins by LC-MS/MS analysis; format: ADME, organism-based; details: in vivo, 1 h
# [16] = tested on: Mus musculus; assay: Elimination half life in C57Bl/6 mouse assessed as platensimycin ML12 level at 10 mg/kg, iv administered as single dose by LC-MS/MS analysis; format: ADME, organism-based; details: in vivo
# [17] = tested on: Mus musculus; assay: Cmax in C57Bl/6 mouse assessed as platensimycin ML12 level at 10 mg/kg, iv administered as single dose by LC-MS/MS analysis; format: ADME, organism-based; design: dose 10 mg/kg, route intravenous; details: in vivo
# [18] = tested on: Mus musculus; assay: AUC (0 to 8 hrs) in C57Bl/6 mouse assessed as platensimycin ML12 level at 10 mg/kg, iv administered as single dose by LC-MS/MS analysis; format: ADME, organism-based; design: dose 10 mg/kg, time < 8 hr, route intravenous; details: in vivo
# [19] = Elimination half life in C57Bl/6 mouse at 3 mg/kg, iv administered as single dose by LC-MS/MS analysis; format: ADME, organism-based; details: in vivo, read-out: beta t1/2 (converted)
# [20] = Elimination half life in C57Bl/6 mouse at 10 mg/kg, po administered as single dose via gavage by LC-MS/MS analysis; format: ADME, organism-based; details: in vivo, read-out: beta t1/2 (converted)
# [21] = Cmax in C57Bl/6 mouse at 3 mg/kg, iv administered as single dose by LC-MS/MS analysis; format: ADME, organism-based; design: dose 3 mg/kg, route intravenous; details: in vivo
# [22] = Cmax in C57Bl/6 mouse at 10 mg/kg, po administered as single dose via gavage by LC-MS/MS analysis; format: ADME, organism-based; design: dose 10 mg/kg, route oral; details: in vivo
# [23] = tested on: Mus musculus; assay: AUC (0 to 8 hrs) in C57Bl/6 mouse at 3 mg/kg, iv administered as single dose by LC-MS/MS analysis; format: ADME, organism-based; design: dose 3 mg/kg, time < 8 hr, route intravenous; details: in vivo
# [24] = tested on: Mus musculus; assay: AUC (0 to 8 hrs) in C57Bl/6 mouse at 10 mg/kg, po administered as single dose via gavage by LC-MS/MS analysis; format: ADME, organism-based; design: time < 8 hr, dose 10 mg/kg, route oral; details: in vivo
# [25] = Observed clearance in C57Bl/6 mouse at 3 mg/kg, iv administered as single dose by LC-MS/MS analysis; format: ADME, organism-based; details: in vivo
# [26] = Volume of distribution in C57Bl/6 mouse at 3 mg/kg, iv administered as single dose by LC-MS/MS analysis; format: ADME, organism-based; details: in vivo
# [27] = Oral bioavailability in C57Bl/6 mouse at 10 mg/kg administered as single dose via gavage by LC-MS/MS analysis; format: ADME, organism-based; details: in vivo
# [28] = tested on: Liver; assay: Drug uptake in C57Bl/6 mouse liver at 10 mg/kg, iv administered as single dose measured after 60 mins by LC-MS/MS analysis; format: ADME, organism-based; details: in vivo, 1 h
# [29] = tested on: Lung; assay: Drug uptake in C57Bl/6 mouse lung at 10 mg/kg, iv administered as single dose measured after 60 mins by LC-MS/MS analysis; format: ADME, organism-based; details: in vivo, 1 h
# [30] = tested on: Kidney; assay: Drug uptake in C57Bl/6 mouse kidney at 10 mg/kg, iv administered as single dose measured after 60 mins by LC-MS/MS analysis; format: ADME, organism-based; details: in vivo, 1 h
# [31] = Drug uptake in C57Bl/6 mouse muscle at 10 mg/kg, iv administered as single dose measured after 60 mins by LC-MS/MS analysis; format: ADME, organism-based, Muscle tissue; details: in vivo, 1 h
# [32] = Drug uptake in C57Bl/6 mouse adipose tissue at 10 mg/kg, iv administered as single dose measured after 60 mins by LC-MS/MS analysis; format: ADME, organism-based; details: in vivo, 1 h
# [33] = Ratio of drug level in C57Bl/6 mouse lung to plasma at 10 mg/kg, iv administered as single dose measured after 60 mins by LC-MS/MS analysis; format: ADME, organism-based
# [34] = Ratio of drug level in C57Bl/6 mouse muscle to plasma at 10 mg/kg, iv administered as single dose measured after 60 mins by LC-MS/MS analysis; format: ADME, organism-based, Muscle tissue/plasma
# [35] = tested on: Lung; assay: In vivo stability in C57Bl/6 mouse lung assessed as compound hydrolysis at 10 mg/kg, iv administered as single dose measured after 60 mins by LC-MS/MS analysis; format: ADME, organism-based; details: 1 h
# [36] = In vivo stability in C57Bl/6 mouse muscle assessed as compound hydrolysis at 10 mg/kg, iv administered as single dose measured after 60 mins by LC-MS/MS analysis; format: ADME, organism-based, Muscle tissue; details: 1 h
# [37] = In vivo stability in C57Bl/6 mouse adipose tissue assessed as compound hydrolysis at 10 mg/kg, iv administered as single dose measured after 60 mins by LC-MS/MS analysis; format: ADME, organism-based; details: 1 h
# [38] = tested on: Plasma; assay: In vivo stability in C57Bl/6 mouse plasma assessed as compound hydrolysis at 10 mg/kg, iv administered as single dose measured after 60 mins by LC-MS/MS analysis; format: ADME, organism-based; details: 1 h
# [39] = tested on: Liver; assay: In vivo stability in C57Bl/6 mouse liver assessed as compound hydrolysis at 10 mg/kg, iv administered as single dose measured after 60 mins by LC-MS/MS analysis; format: ADME, organism-based; details: 1 h
# [40] = tested on: Kidney; assay: In vivo stability in C57Bl/6 mouse kidney assessed as compound hydrolysis at 10 mg/kg, iv administered as single dose measured after 60 mins by LC-MS/MS analysis; format: ADME, organism-based; details: 1 h
# [41] = In vivo stability in C57Bl/6 mouse urine assessed as compound hydrolysis at 10 mg/kg, iv administered as single dose measured after 60 mins by LC-MS/MS analysis; format: ADME, organism-based; details: 1 h
# [42] = tested on: Brain; assay: In vivo stability in C57Bl/6 mouse brain assessed as compound hydrolysis at 10 mg/kg, iv administered as single dose measured after 60 mins by LC-MS/MS analysis; format: ADME, organism-based; details: 1 h
smiles,measurement,setting,value
C[C@]12C[C@@]34C=CC(=O)[C@@](C)(CCC(=O)Nc5c(O)ccc(C(=O)S[C@H]6CC(=O)[C@@](C)(CCC(=O)Nc7c(O)ccc(C(=O)O)c7O)[C@@H]7[C@@H]8C[C@@H]9C[C@]67C[C@]9(C)O8)c5O)[C@@H]3[C@H](C[C@@H]1C4)O2,half-life,[1],1.1 h
same,beta t1/2,[2],1.9 h
same,Cmax,[3],38 µM
same,Cmax,[4],15 µM
same,AUC,[5],18 µM·h
same,AUC,[6],6.3 µM·h
same,clearance,[7],0.66 L/h/kg
same,Vd,[8],0.33 L/kg
same,Vd,[9],2.5 L/kg
same,Drug uptake,[10],Active
same,Kp at 1 h,[11],0.6
same,Kp at 1 h,[12],0.2
same,dose excreted at 1 h,[13],< 1%
same,Drug metabolism,[14],Metabolite_Detected
same,Drug uptake,[15],< 1%
C[C@@]1(O)C[C@]23C[C@H]1CC[C@H]2[C@]1(C)CCC(=O)Nc2c(O)ccc(c2O)C(=O)S[C@H]2CC(=O)[C@@](C)(CCC(=O)Nc4c(O)ccc(c4O)C(=O)S[C@H]3CC1=O)[C@@H]1CC[C@@H]3C[C@]21C[C@@]3(C)O,half-life,[1],0.76 h
same,beta t1/2,[16],1.8 h
same,Cmax,[3],150 µM
same,Cmax,[17],2.3 µM
same,AUC,[5],71 µM·h
same,AUC,[18],2.5 µM·h
same,clearance,[7],0.18 L/h/kg
same,Vd,[8],0.08 L/kg
C=C1C[C@@]23C=CC(=O)[C@@](C)(CCC(=O)Nc4c(O)ccc(C(=O)O)c4O)[C@@H]2C[C@@H]1CC3 [PLATENCIN],half-life,[19],0.22 h
same,half-life,[20],1.3 h
same,Cmax,[21],11 µM
same,Cmax,[22],4 µM
same,AUC,[23],6.8 µM·h
same,AUC,[24],2.3 µM·h
same,clearance,[25],1.38 L/h/kg
same,Vd,[26],0.46 L/kg
same,bioavailability,[27],10%
same,Drug uptake,[10],Active
same,Drug uptake,[28],Active
same,Drug uptake,[29],Active
same,Drug uptake,[30],Active
same,Drug uptake,[31],Active
same,Drug uptake,[32],Not Active
same,Kp at 1 h,[11],3.8
same,Kp at 1 h,[33],0.4
same,Kp at 1 h,[12],1.4
same,Kp at 1 h,[34],0.1
same,Stability,[35],Stable
same,Stability,[36],Stable
same,Stability,[37],Stable
same,Stability,[38],Unstable
same,Stability,[39],Unstable
same,Stability,[40],Unstable
same,Stability,[41],Unstable
same,Stability,[42],Stable
